From US20060263802A1 (priority 2003, published 2006)

Key:
Assay type in all cases: binding
[1] = test system: human monoclonal antibody CRJB
[2] = test system: human monoclonal antibody CR57
[3] = test system: human monoclonal antibody CRJA
[4] = test system: human monoclonal antibody CRJB; remark: listed apart in the source
[5] = test system: human monoclonal antibody CR57; remark: listed apart in the source
[6] = test system: human monoclonal antibody CRJA; remark: listed apart in the source

| Sequence | Binding of CRJB to linear peptide (PEPSCAN-ELISA signal) [1] | Binding of CR57 to linear peptide (PEPSCAN-ELISA signal) [2] | Binding of CRJA to linear peptide (PEPSCAN-ELISA signal) [3] | Binding of CRJB (10 μg/ml) to looped/cyclic peptide (PEPSCAN-ELISA) [4] | Binding of CR57 (10 μg/ml) to looped/cyclic peptide (PEPSCAN-ELISA) [5] | Binding of CRJA (10 μg/ml) to looped/cyclic peptide (PEPSCAN-ELISA) [6] | Binding of CRJB (10 μg/ml) to looped/cyclic peptide (PEPSCAN-ELISA signal) [4] | Binding of CR57 (10 μg/ml) to looped/cyclic peptide (PEPSCAN-ELISA signal) [5] | Binding of CRJA (10 μg/ml) to looped/cyclic peptide (PEPSCAN-ELISA signal) [6] | Binding of human monoclonal antibody CRJB to linear peptide (PEPSCAN-ELISA signal) [1] | Binding of human monoclonal antibody CR57 to linear peptide (PEPSCAN-ELISA signal) [2] | Binding of human monoclonal antibody CRJA to linear peptide (PEPSCAN-ELISA signal) [3] | Binding of CRJB to looped/cyclic peptide (PEPSCAN-ELISA signal) [4] | Binding of CR57 to looped/cyclic peptide (PEPSCAN-ELISA signal) [5] | Binding of CRJA to looped/cyclic peptide (PEPSCAN-ELISA signal) [6] |
| --- | --- | --- | --- | --- | --- | --- | --- | --- | --- | --- | --- | --- | --- | --- | --- |
| LQQHMELLESSVIPL | 134 | 106 | 91 | 93 | 136 | 108 |  |  |  |  |  |  |  |  |  |
| VAVSSTYCSTNHDYT | 114 | 85 | 106 |  |  |  | 83 | 103 | 88 |  |  |  |  |  |  |
| GVVTEAENYTNFVGY | 111 | 86 | 76 |  |  |  | 71 | 83 | 90 |  |  |  |  |  |  |
| YTILDKLGPWSPIDI | 114 | 48 | 93 |  |  |  | 73 | 75 | 91 |  |  |  |  |  |  |
| LVNLHDFRSDEIEHL | 104 | 47 | 106 | 23 | 1 | 93 |  |  |  |  |  |  |  |  |  |
| AHYKSVRTWNEILPS | 160 | 112 | 106 | 106 | 106 | 104 |  |  |  |  |  |  |  |  |  |
| YNWKMAGDPRYEESL | 118 | 83 | 110 |  |  |  | 89 | 89 | 98 |  |  |  |  |  |  |
| VPGFGKAYTIFNKTL | 114 | 58 | 96 | 42 | 74 | 87 |  |  |  |  |  |  |  |  |  |
| LPDVHNQVSGVDLGL |  |  |  |  |  |  |  |  |  | 154 | 104 | 97 | 118 | 116 | 98 |
| LRVGGRCHPHVNGVF | 143 | 104 | 104 | 105 | 99 | 96 |  |  |  |  |  |  |  |  |  |
| HVNGVFFNGIILGPD | 123 | 97 | 108 | 92 | 97 | 105 |  |  |  |  |  |  |  |  |  |
| ACRAAYNWKMAGDPR | 116 | 82 | 93 |  |  |  | 93 | 138 | 110 |  |  |  |  |  |  |
